The record followed here is patent US11311513B2, “Methods, agents, and compositions for the treatment of acute myeloid leukemia” (UNIVERSITY OF CINCINNATI, priority 2017, dated 2022).

The subject of one test is AE9a-AML. Put plainly: AML-ETO9a (AE9a) AML secondary BMT mouse model. As to conditions: for median survival: 2.5 mg/kg i.p. once per day for 10 days, control 46 days. In kind it is in vivo, mice. The method, then:
FIG. 2. […] The secondary BMT recipient mice were transplanted with leukemic BM blast cells collected from primary MLL-AF9 AML mice. […] Kaplan-Meier curves are shown. The P values were determined by log-rank test. (b) Wright-Giemsa staining of mouse peripheral blood (PB) and BM, or hematoxylin and eosin (H&E) staining of mouse spleen and liver of the treated or control leukemic mice. (c,d) Tet1/2/3 gene expression levels (c) or Tet1 protein level (d) in BM blast cells of the treated or control leukemic mice. *, P<0.05, two-tailed t-test. Error bar indicates SD of triplicate experiments. […] The secondary BMT recipient mice were transplanted with leukemic BM blast cells collected from the primary AE9a-AML mice. […] Kaplan-Meier curves are shown. The P values were determined by log-rank test.
(§1) Secondary mouse BMT was carried out as described previously. […] For the “5+3” treatment, AraC (Cytarabine, Bedford Laboratories) and DNR (Daunorubicin, Sigma-Aldrich) were reconstituted with PBS, filtered, and stored in aliquots at −20° C. The “5+3” therapy regimen consists of five consecutive daily doses of 50 mg/kg AraC along with 3 mg/kg DNR daily during the first three days of treatment. Drugs were delivered by tail vein and intraperitoneal injection. Weights were taken daily during treatment and doses were recalculated to ensure the mice received a consistent dose of 50 mg/kg AraC and 3 mg/kg DNR every treatment.

For test [1], the system named is Tet1 deficient mouse BM progenitor cells transduced with MLL-AF9. The test is described as follows: Viability of MLL-AF9-transduced Tet1 deficient BM progenitor cells. In kind it is cell-based. Conditions: 48 hrs; for cell viability: Tet1 deficient counterpart cells; for viability of cells with induced Tet1 deficiency: conditional Tet1 knockout, polyI:C induced, 500 nM. The method, then: FIG. 5. […] Gene expression levels are shown. […] ChIP-qPCR assay was carried out 48 hrs after drug treatment. Enrichment of STAT3, STAT5, or IgG at the TET1 promoter region and other regions are shown. […] BM progenitor cells of wild-type or Tet1^−/− mice were retrovirally transduced with MLL-AF9. […] Relative cell viabilities are shown. (m) Cre-Tet1f mouse BM progenitor cells were retrovirally transduced with MLL-AF9. […] Relative cell viability is shown. (n-o) THP-1 (n) and MONOMAC-6 (o) cells were infected with lentivirus of pLenti-puro vector-based Tet1 construct. […] Relative cell viability is shown. *, P<0.05; **, P<0.01, two-tailed t-test. Error bar indicates SD of triplicate experiments.
FIG. 13. […] (a-d) BM progenitor cells of wild-type or Tet1^−/− mice were retrovirally transduced with MLL-AF9. Infected cells were treated with 200 nM JAK/STAT inhibitors individually, including Pacritinib (a), KW-2449 (b), Stattic (c) or sc-355979 (d), for 48 hrs. Relative cell viabilities are shown. (e) Cre-Tet1^fl/fl mouse BM progenitor cells were retrovirally transduced with MLL-AF9. […] Cell viabilities (normalized to non-induced Cre-Tet1^fl/fl treated with DMSO control) are shown. ‘K, P<0.05; ‘K‘K, P<0.01, two-tailed t-test
siRNAs were transfected into MONOMAC-6 cells with Cell Line Nucleofector Kit V following program T-037, using the Amaxa Nucleofector Technology (Amaxa Biosystems, Berlin, Germany). Experiments were performed 48 h after transfection. Retrovirus infection of mouse BM progenitor cells were conducted as described previously with some modifications. Briefly, retrovirus vectors were co-transfected with pCL-Eco packaging vector (IMGENEX, San Diego, Calif.) into HEK293T cells using Effectene Transfection Reagent (Qiagen, Valencia, Calif.) to produce retrovirus. BM cells were harvested from a cohort of 4- to 6-week-old C57BL/6, Tet1^−/−, or Cre-Tet1^fl/fl donor mice after five days of 5-fluorouracil (5-FU) treatment, and primitive hematopoietic progenitor cells were enriched with Mouse Lineage Cell Depletion Kit (Miltenyi Biotec Inc., Auburn, Calif.). An aliquot of enriched hematopoietic progenitor cells was added to retroviral supernatant together with polybrene in cell culture plates, which were centrifuged at 2,000 g for 2 hours at 32° C. (i.e., spinoculation) and then the medium was replaced with fresh media and incubated for 20 hours at 37° C. Next day, the same procedure was repeated once. Infected cells were grown in RPMI 1640 medium containing 10 ng/mL murine recombinant IL-3, 10 ng/mL IL-6, 100 ng/mL murine recombinant SCF (R&D Systems, Minneapolis, Minn.), along with 1.0 mg/ml of G418. Experiments were performed 7 days after infection.
These experiments were conducted as described previously (Jiang, X., et al., Blockade of miR-150 Maturation by MLL-Fusion/MYC/LIN-28 Is Required for MLL-Associated Leukemia, Cancer Cell 22:524-35 (2012); Li, Z., et al., miR-196b directly targets both HOXA9/MEIS1 oncogenes and FAS tumour suppressor in MLL-rearranged leukaemia, Nat Commun 2:688 (2012)) with ApoLive-Glo Multiplex Assay Kit, or CellTiter 96 AQueous Non-Radioactive Cell Proliferation Assay Kit (Promega, Madison, Wis.).

In another test the test system is FLT3-ITD/NPM1^mut AML. The test is described as follows: FLT3-ITD/NPM1mut AML secondary BMT mouse model. In kind it is in vivo, mice. Conditions: 2.5 mg/kg i.p. once per day for 10 days; for median survival: control 21 days. The method, then: FIG. 4. […] (a) Structures of NSC-370284 and UC-514321. […] Cells were treated with drugs at indicated doses. Cell viability was detected by MTS 48 hrs post-treatment. Error bar indicates SD of triplicate experiments. […] Secondary BMT recipient mice were transplanted with primary leukemic BM cells with MLL-AF9 (f) or AML-ETO9a (g). […] Kaplan-Meier curves are shown. The P values were determined by log-rank test. […] Secondary BMT recipient mice were transplanted with primary leukemic BM cells with MLL-AF10 or FLT3-ITD/NPM1^mut. […] Kaplan-Meier curves are shown. The P values were determined by log-rank test. (j) Wright-Giemsa staining of mouse PB and BM, or H&E staining of mouse spleen and liver of MLL-AF9 AML secondary BMT recipients with or without drug treatment.
as §1

A further test has as its system THP-1 and KASUMI-1 cells. The test is described as follows: Combination with daunorubicin in AML cells. In kind it is cell-based. Conditions: 25 nM compound and 100 nM DNR; 48 hours.

“And” between values parts separate entries of the source, which are not always exact repeats. Identical values can stand only once. Some results are limits rather than exact numbers.

`COc1cc(C(c2cc3c(cc2O)OCO3)N2CCCC2)cc(OC)c1OC` (stereo not drawn) [NSC-370284, 6-(1-Pyrrolidinyl(3,4,5-trimethoxyphenyl)methyl)-1,3-benzodioxol-5-ol]: the median survival in the test with AE9a-AML was 122 days and 114 days. Further, in test [1], the cell viability entry was “no such inhibition” and the “viability of cells with induced Tet1 deficiency” value is given as “no significant effect”. The compound further gave a median survival in the test on FLT3-ITD/NPM1^mut AML of 34 days. Further, in the test with THP-1 and KASUMI-1 cells, the “combined effect with DNR on inhibiting viability” value is “works synergistically”.

Turning to `CC(C)(C)c1cc(C(c2cc3c(cc2O)OCO3)N2CCOCC2)cc(C(C)(C)C)c1O` (stereo not drawn) [UC-514321, 6-{[4-Hydroxy-3,5-bis(2-methyl-2-propanyl)phenyl](4-morpholinyl)methyl}-1,3-benzodioxol-5-ol], the median survival in the test on AE9a-AML is 160 days. Besides, the “prolongation of median survival” value with AE9a-AML (versus control, 2.5 mg/kg i.p. 10 days) is recorded as “over 3 folds”. In test [1], the cell viability result is “no such inhibition” and the “viability of cells with induced Tet1 deficiency” value is given as “no significant effect”. Also, in the test with FLT3-ITD/NPM1^mut AML, the “recipients that developed full-blown AML within 50 days” value is given as “none” and the median survival was more than 50 days. Further, the “combined effect with DNR on inhibiting viability” value with THP-1 and KASUMI-1 cells is listed as “works synergistically”.
